Earlier results on one substance are cited in patent US8846088B2, “Melt granulation of a composition containing a calcium-containing compound” (Takeda Nycomed AS, priority 2005, dated 2014).

The series concerns elderly patients. The conditions noted are these: annual injections of 150.000-300.000 IU.

Consider vitamin D, for which the overall fracture rate result is on record as “significant reduction in overall fracture rate” and the “rate of hip fracture” value is on record as “not in the rate of hip fracture”.
